The values below come from US20240156825A1, “USE OF SELECTIVE VEGFR2 AND FGFR1 INHIBITORS” (Fountain Therapeutics Inc., priority 2022, published 2024).

Test [1] has as its system VEGFR2 and FGFR1. Nature of the test: Selection of compounds that selectively inhibit both VEGFR2 and FGFR1 (average relative IC50). In kind it is biochemical. The settings on record: average of VEGFR2 and FGFR1 relative IC50.
Test [2] relates to Zmpste24−/− mice. Nature of the test: Mouse model of progeria: body fat (Echo MRI), lean muscle, body weight, intrascapular brown fat. In kind it is in vivo. The settings on record: for Body fat (Echo MRI) vs vehicle / Intrascapular brown fat mass (percent of body weight) vs vehicle: Brivanib alaninate 50, SU5402 25, Cediranib maleate 5, Regorafenib 10, infigratinib 5 mg/kg. On the procedure:
Zmpste24 mice, a progeria model mouse line, were dosed with either 50 mg/kg Brivanib alaninate for 56 days, 5 days on, 2 days off (QD5), or vehicle alone. The dose was administered via oral gavage as a suspension of 18% (w/v) PEG400 2% (w/v) Tween-80 in water . The vehicle alone was 18% (w/v) PEG400 2% (w/v) Tween-80 in water.
The body fat of the mice was measured by an Echo MRI throughout the treatment.
Samples of intrascapular brown adipose tissue from 15 week old mice treated with Brivanib Alaninate or vehicle for 56 days underwent Hematoxylin and Eosin (H&E) staining.
Zmpste24−/− mice, a progeria model mouse line, were dosed with either 25 mg/kg SU5402 for 56 days, 5 days on, 2 days off (QD5) or vehicle alone. The dose was administered via oral gavage as a suspension of 5% (w/v) DMSO 9% (w/v) PEG400 1% (w/v) Tween-80 in saline. The vehicle alone was 5% (w/v) DMSO 9% (w/v) PEG400 1% (w/v) Tween-80 in saline.
The body fat of the mice was measured by an Echo […]. Lean muscle and body weight were also measured.
The dose was administered via oral gavage as a suspension of 18% (w/v) PEG400 2% (w/v) Tween-80 in water . The vehicle alone was 18% (w/v) PEG400 2% (w/v) Tween-80 in water.
The body fat of the mice was measured by an Echo MRI. […] There was also no alteration of intrascapular brown adipose tissue mass (FIG. 5D).
The dose was administered via oral gavage as a suspension of 18% (w/v) PEG400 2% (w/v) Tween-80 in water. The vehicle alone was 18% (w/v) PEG400 2% (w/v) Tween-80 in water.
The body fat of the mice was measured by an Echo MM. […] There was also no alteration of intrascapular brown adipose tissue mass (FIG. 6D).
The body fat of the mice was measure by an Echo MRI. […] There was also no alteration of intrascapular brown adipose tissue mass (FIG. 7D). […]

The target in test [3] is T1, VEGFR2 (Homo sapiens, UniProt P35968). The conditions noted are these: relative IC50: reported IC50 toward VEGFR2 divided by next lowest reported IC50 to any gene target.
The target of test [4] is T2, FGFR1 (Homo sapiens, UniProt P11362). The settings on record: relative IC50: reported IC50 toward FGFR1 divided by next lowest reported IC50 to any gene target.
Test [5] concerns any gene target. The conditions noted are these: cited from earlier work.
Test [6] concerns the target T3, EPHX2 (Homo sapiens, UniProt P34913).
T3 sequence (P34913 1-555): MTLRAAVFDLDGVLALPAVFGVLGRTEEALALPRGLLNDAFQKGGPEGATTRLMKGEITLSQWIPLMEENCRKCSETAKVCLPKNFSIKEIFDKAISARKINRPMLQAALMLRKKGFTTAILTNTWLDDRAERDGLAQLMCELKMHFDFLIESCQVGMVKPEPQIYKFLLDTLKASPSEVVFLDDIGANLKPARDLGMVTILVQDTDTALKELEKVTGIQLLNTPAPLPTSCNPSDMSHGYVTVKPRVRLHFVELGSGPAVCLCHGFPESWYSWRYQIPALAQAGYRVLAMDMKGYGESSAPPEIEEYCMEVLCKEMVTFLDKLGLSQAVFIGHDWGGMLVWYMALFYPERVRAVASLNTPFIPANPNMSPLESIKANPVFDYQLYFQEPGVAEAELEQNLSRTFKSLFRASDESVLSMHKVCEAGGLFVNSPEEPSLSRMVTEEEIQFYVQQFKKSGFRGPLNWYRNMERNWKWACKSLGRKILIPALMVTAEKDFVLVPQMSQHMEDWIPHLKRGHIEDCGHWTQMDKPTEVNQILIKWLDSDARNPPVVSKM
The settings on record: cited from earlier work.

In test [7] the test system is Zmpste24−/− mice. Nature of the test: Mouse model of progeria: bone loss score of vertebrae and femur (H&E sections). Type of test: in vivo. The settings on record: 50 mg/kg oral QD5 56 days, 15 weeks of age. On the procedure: Zmpste24−/− mice were dosed with either 50 mg/kg Brivanib Alaninate for 56 days, 5 days on, 2 days off (QD5), or vehicle alone. The dose was administered via oral gavage as a suspension of 18% (w/v) PEG400 2% Tween-80 (w/v) in water . The vehicle alone was 18% (w/v) PEG400 2% (w/v) Tween-80 in water.
The mice were assessed for bone loss in the vertebrae and femur at 15 weeks of age. Bone loss was scored by a pathologist using H&E stained sections of vertebrae or femur samples by the following criteria:
The mice that are treated with a selective VEGFR2 inhibitor and a selective FGFR1 inhibitor are also assessed for bone loss in the vertebrae and femur. Bone loss is scored by a pathologist using the criteria in Example 2.

Test [8] relates to C57BL6 mice fed a high fat, high cholesterol, high fructose diet. Nature of the test: Mouse model of diet induced fatty liver disease. Type of test: in vivo. The conditions noted are these: 28 days.
Test [9] deals with T1, VEGFR2. The conditions noted are these: read-out: VEGFR2 IC50_μM; reported IC50 to VEGFR2; cited from earlier work.
Test [10] has as its target T2, FGFR1. The conditions noted are these: read-out: FGFR1 IC50_μM; reported IC50 to FGFR1; cited from earlier work.
The mark [11] stands for this setting: oral gavage QD5 for 56 days, SU5402 25, Cediranib maleate 5, Regorafenib 10, infigratinib 5 mg/kg.
The mark [12] stands for this setting: lowest reported IC50 to any gene target, read-out: min IC50.
Where [13] appears, read: 50 mg/kg i.p. once a day, relative to standard diet.

Read-outs that look alike come from different tables or passages of the source.

T1 sequence (P35968 20-1356, species assumed): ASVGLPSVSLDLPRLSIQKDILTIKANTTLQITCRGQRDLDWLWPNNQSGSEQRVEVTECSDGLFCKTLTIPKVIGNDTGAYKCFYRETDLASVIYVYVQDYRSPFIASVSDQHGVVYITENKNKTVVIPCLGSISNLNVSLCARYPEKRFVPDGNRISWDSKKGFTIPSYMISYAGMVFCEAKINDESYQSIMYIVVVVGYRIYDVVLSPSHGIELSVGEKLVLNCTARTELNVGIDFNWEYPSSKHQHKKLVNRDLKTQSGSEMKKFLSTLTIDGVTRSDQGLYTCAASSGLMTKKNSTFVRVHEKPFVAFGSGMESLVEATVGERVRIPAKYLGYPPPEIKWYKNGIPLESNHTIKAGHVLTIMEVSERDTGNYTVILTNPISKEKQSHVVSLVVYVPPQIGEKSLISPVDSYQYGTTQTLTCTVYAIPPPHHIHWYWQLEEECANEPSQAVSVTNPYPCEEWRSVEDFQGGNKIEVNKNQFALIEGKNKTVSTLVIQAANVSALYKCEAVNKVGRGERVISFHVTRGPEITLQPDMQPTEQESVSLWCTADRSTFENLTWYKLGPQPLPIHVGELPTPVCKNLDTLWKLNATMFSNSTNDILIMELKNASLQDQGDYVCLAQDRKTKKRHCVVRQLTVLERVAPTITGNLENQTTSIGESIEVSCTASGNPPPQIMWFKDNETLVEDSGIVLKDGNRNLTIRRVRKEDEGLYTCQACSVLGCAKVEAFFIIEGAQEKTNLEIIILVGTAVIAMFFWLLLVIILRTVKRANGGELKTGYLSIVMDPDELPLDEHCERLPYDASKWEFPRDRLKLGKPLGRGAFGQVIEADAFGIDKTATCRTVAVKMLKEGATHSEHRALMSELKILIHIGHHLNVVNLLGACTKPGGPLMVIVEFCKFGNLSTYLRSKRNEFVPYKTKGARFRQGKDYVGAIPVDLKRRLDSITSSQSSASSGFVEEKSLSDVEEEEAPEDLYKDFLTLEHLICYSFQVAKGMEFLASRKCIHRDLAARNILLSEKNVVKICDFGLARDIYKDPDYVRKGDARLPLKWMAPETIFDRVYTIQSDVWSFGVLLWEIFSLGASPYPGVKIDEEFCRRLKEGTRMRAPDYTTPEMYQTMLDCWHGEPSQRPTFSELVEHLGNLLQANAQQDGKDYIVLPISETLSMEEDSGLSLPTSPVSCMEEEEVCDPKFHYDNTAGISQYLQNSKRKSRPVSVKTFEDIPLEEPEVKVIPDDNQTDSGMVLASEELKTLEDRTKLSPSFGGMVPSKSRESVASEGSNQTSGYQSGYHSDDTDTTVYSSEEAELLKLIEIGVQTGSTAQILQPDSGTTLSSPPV
T2 sequence (P11362 22-822, species assumed): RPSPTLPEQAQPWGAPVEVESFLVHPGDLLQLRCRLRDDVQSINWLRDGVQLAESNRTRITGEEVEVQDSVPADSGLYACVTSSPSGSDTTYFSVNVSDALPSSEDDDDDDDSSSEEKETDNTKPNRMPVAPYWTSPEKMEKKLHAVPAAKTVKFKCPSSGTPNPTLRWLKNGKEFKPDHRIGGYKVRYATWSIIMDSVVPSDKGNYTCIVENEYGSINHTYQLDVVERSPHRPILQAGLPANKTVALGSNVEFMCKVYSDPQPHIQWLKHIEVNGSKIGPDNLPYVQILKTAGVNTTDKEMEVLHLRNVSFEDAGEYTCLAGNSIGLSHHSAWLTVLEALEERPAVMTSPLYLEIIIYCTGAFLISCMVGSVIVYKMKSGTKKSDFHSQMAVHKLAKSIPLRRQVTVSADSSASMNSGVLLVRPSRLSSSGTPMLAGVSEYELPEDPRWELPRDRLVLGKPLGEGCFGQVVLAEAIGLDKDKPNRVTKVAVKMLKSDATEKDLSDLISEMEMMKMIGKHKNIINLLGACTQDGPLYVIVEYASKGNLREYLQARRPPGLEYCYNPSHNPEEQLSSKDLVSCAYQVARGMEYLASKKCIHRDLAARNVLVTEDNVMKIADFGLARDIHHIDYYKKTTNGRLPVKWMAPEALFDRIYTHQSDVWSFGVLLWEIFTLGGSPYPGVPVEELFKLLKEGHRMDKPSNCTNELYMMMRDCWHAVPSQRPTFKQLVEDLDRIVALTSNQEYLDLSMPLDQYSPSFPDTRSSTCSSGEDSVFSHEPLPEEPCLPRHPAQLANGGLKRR

On to `CNC(=O)c1cc(Oc2ccc(NC(=O)Nc3ccc(Cl)c(C(F)(F)F)c3)c(F)c2)ccn1` [compound 11167602, Regorafenib], for which the “avg rIC50” value in test [1] amounted to 5.7. For the same compound, in test [2] (oral gavage QD5 for 56 days), the “Body fat (Echo MRI) vs vehicle” value was “did not show an increase” and the “Intrascapular brown fat mass (percent of body weight) vs vehicle” value is reported as “no alteration”. In addition, in [2] (setting [11]), the “Body weight vs vehicle” value is on record as “did not show an increase” and the “Lean muscle vs vehicle” value is “did not show an increase”. Further, the “VEGFR2, rIC50” value in test [3] came to 8.4. Besides, in test [4], the “FGFR1, rIC50” value is recorded as 3.0. In [5] (setting [12]), the IC50 is 0.001 µM. Further, in test [6], the IC50 is less than 0.003 µM.

Regarding `Cc1cc2c(F)c(Oc3ncnn4cc(OC[C@@H](C)OC(=O)[C@@H](C)N)c(C)c34)ccc2[nH]1` [compound 11234052, Brivanib alaninate (Brivanib)], in [1], the “avg rIC50” value was 1.0. For the same compound, the “Lipid content in intrascapular brown adipose tissue (H&E)” value in [2] (15 week old mice, 50 mg/kg for 56 days) is listed as “increased lipid content”. Moreover, in test [2] (oral gavage QD5 for 56 days), the “Body fat (Echo MRI) vs vehicle” value is “increase in body mass starting at 6 weeks of age” and the “Intrascapular brown fat mass (percent of body weight) vs vehicle” value is reported as “made up for more of the percent of the body weight”. In test [7], the “Bone loss score, femur: most severe score in the group” value was 0.5 (0.5 = less than 1%); the “Bone loss score, vertebrae: most severe score in the group” value was 4 (4 = 51-75%); the “Bone loss scores vs vehicle” value is listed as “lower bone loss scores”; the “Share of mice with the most severe score, femur” value is on record as “about 30%”. Besides, the “Share of mice with the most severe score, vertebrae” value in test [7] is “about 15%”. In test [8] (25 mg/kg i.p. once a day), the “Liver lipid content (H&E) vs vehicle” value is “decreased liver lipid content”, the “Size of adipocytes in the epididymal fat pad vs vehicle” value is given as “decreased the size of adipocytes” and the “Thickness of the abdominal subcutaneous adipose” value is “increased in the thickness”. Moreover, in test [8] (setting [13]), the “Increase in blood urea nitrogen vs fatty liver diet + vehicle” value is “less of an increase”, the “Increase in body weight vs fatty liver diet + vehicle” value is “less of an increase”, the “Increase in liver mass vs fatty liver diet + vehicle” value is recorded as “less of an increase” and the “Increase in serum cholesterol vs fatty liver diet + vehicle” value was “less of an increase”. Further, the “Increase in serum triglycerides vs fatty liver diet + vehicle” value in test [8] (setting [13]) is on record as “less of an increase”. Also, the “VEGFR2, rIC50” value in [3] was 0.9. The “FGFR1, rIC50” value in test [4] is 1.1. Moreover, in [9], the IC50 was 0.025 µM. Further, the IC50 in test [5] (setting [12]) is 0.025 µM. Further, the IC50 in [5] (next lowest IC50 value to any gene target, read-out: Min IC50_μM) is 0.028 µM.

As for `CONC(=O)c1cc(Nc2ncnn3cc(-c4nnc(C(F)(F)F)o4)c(C(C)C)c23)c(F)cc1F` [compound 11488852, 2,4-Difluoro-5-[5-isopropyl-6-(5-trifluoromethyl-[1,3,4]oxadiazol-2-yl)-pyrrolo[2,1-f][1,2,4]triazin-4-ylamino]-N-methoxy-benzamide, reference compound], the “avg rIC50” value in [1] worked out at 1.0. The “VEGFR2, rIC50” value in test [3] was determined as 1.1. Besides, in test [4], the “FGFR1, rIC50” value came to 1.0. Further, the IC50 is 0.033 µM in [10]; 0.033 µM in [5] (lowest reported IC50 to any gene target, read-out: Min IC50_μM); 0.033 µM in test [5] (setting [12]).
